# Structures can show the parent of a compound that is named as a salt.
# Columns and labels:
# [1] = system: experimental autoimmune encephalomyelitis (EAE) mouse model; assay: Study EAE-C05: clinical score in EAE mouse model with active comparators; assay type: in vivo; conditions: 2 mg/kg daily, after 5 days of treatment
# Experimental: A second experiment (Study EAE-C05) was then performed using the same mouse model.
# Study EAE-C05: In addition to two dose levels of BN201 and a placebo-treated group (pathological control group), the study design introduced two active comparators, dimethyl fumarate (DMF) and fingolimod (FTY720), and a sham group (group in which animals were manipulated as the pathological group but without MOG injection). All groups were administered daily. • sham control non-diseased placebo-treated animals (healthy control group); • EAE-affected placebo-treated animals (pathological control group); • EAE-affected animals treated orally with 15 mg/kg of DMF; • EAE-affected animals treated with 2 mg/kg of FTY720; • EAE-affected animals treated with BN201 at 50 or 100 mg/kg.
# (§1) Clinical scores were assigned to assess disease severity using the following scale: 0=normal; 0.5=Partial tail paralysis; 1=Complete tail paralysis; 1.5=Tail paralysis and loss of righting reflex; 2=Partial hind limb paralysis/paralysis of one limb; 2.5=One limb paralysis and partial loss of activity of one other limb; 3=Bilateral hind limb paralysis; 4=Moribund; 5=exitus.
# Therapeutic treatment was initiated on day 12 or 13, once each mouse started showing complete tail paralysis (Score 1).
# [2] = system: experimental autoimmune encephalomyelitis (EAE) mouse model; assay: Study EAE-C06: dose response of BN201, clinical score in EAE mouse model; assay type: in vivo; conditions: 2 mg/kg daily, almost all days of observation/treatment (Day 2 to day 30)
# Experimental: A third experiment (Study EAE-C06) to test dose response of BN201 was then performed using the same mouse model.
# Study EAE-C06: five different concentrations of BN201: 12.5 mg/kg, 25 mg/kg, 50 mg/kg, 100 mg/kg, and 150 mg/kg. Also sham, pathological control and FTY720 (2 mg/kg) comparator groups were included in the experiment. All groups were administered daily.
# as §1
# Therapeutic treatment was initiated on day 12 once each mouse started showing complete tail paralysis (Score 1).
# Data are depicted in FIG. 1 (C), wherein the clinical score for each of the tested groups is plotted per day after disease onset.
# [3] = system: EAE in C57BL6 mice immunized with MOG35-55; assay: Example 3: BN201 and DMF combination, progression of chronic EAE; assay type: in vivo, mouse; conditions: DMF 10 mg/kg oral alone (suboptimal), once a day six days per week from day 15
# Experimental: Effect in the animal model of MS (i.e., EAE in C57BL6 mice immunized with MOG35-55), similar to Example 2.
# Starting on day 15, mice were administered: • dimethyl fumarate (DMF) (group A, 10 mice), • BN201 (group B, 10 mice) • a combination thereof (group C, 10 mice) once a day for six days per week at suboptimal dosages (10 mg/kg for DMF, 25 mg/kg for BN201).
# DMF was administered orally with a rigid cannula in a saline vehicle at a volume of 10 mL/kg, while BN201 was administered via i.p. injection in a saline vehicle at a volume of 5 mL/kg. Control mice received vehicle only via both oral and i.p. injection (group D, 10 mice) or nothing at all (group E, 2 mice).
# The objective of the study was to evaluate the efficacy and safety of combination therapy with suboptimal doses of BN201 (25 mg/kg) and dimethyl-fumarate (DMF) (10 mg/kg) in the progression of chronic EAE in mice.
# During a one week acclimation period starting on day −7, mice were distributed based on body weight stratification into different experimental groups. On day 0, mice were immunized subcutaneously in both hind pads with 150 μg of MOG peptide 35-55 (Spikem, Firenze) emulsified with 50 μg of Mycobacterium tuberculosis (H37Ra strain; Difco, Detroit, MI) in incomplete Freund's adjuvant (IFA). […]
# [4] = system: EAE in C57BL6 mice immunized with MOG35-55; assay: Example 4: BN201 and STAT3 inhibitor combination, chronic phase of EAE; assay type: in vivo, mouse; conditions: S31-201 5 mg/kg i.p. alone (optimal), from day 34 to day 54
# Experimental: Effect during the chronic phase of the disease in the animal model of Multiple Sclerosis (i.e., EAE in C57BL6 mice immunized with MOG35-55)
# Efficacy and safety of combination therapy with optimal doses of BN201 (50 mg/kg) and S31-201 (5 mg/kg) in the progression of chronic EAE in mice.
# Starting the chronic phase of the disease (by day 34) mice were administered: • the STAT3 inhibitor S31-201 (group A, 7 mice), • BN201 (group B, 6 mice), or • a combination thereof (group C, 6 mice) once a day for six days per week at optimal dosages (5 mg/kg for S31-201, 50 mg/kg for BN201).
# S31-201 and BN201 were administered via i.p. injection in a saline vehicle at a volume of 5 mL/kg. Control mice received vehicle only via both oral and i.p. injection (group D, 6 mice) or nothing at all (group E, 2 mice). Mice were treated from day 34 (chronic EAE stage) until the end of the experiment on day 54.
# The combination of BN201 and the STAT3-inhibitor S31-201 was evaluated for its effect during the chronic phase of the disease in the animal model of Multiple Sclerosis (i.e., EAE in C57BL6 mice immunized with MOG35-55). The objective of the study was to evaluate the efficacy and safety of combination therapy with optimal doses of BN201 (50 mg/kg) and 531-201 (5 mg/kg) in the progression of chronic EAE in mice. […]
# [5] = system: human neuroblastoma cell line SH-SY5Y; assay: Neuroprotection against H2O2 oxidative stress, MTT assay; assay type: cell-based; conditions: 1 hour preincubation at 0.03-40 μM, then H2O2 15 μM 30 minutes
# Experimental: The objective of the study was to test the possible synergistic effect of the BN201-monomethylfumarate salt in a neuroprotective assay. Thus, BN201-monomethylfumarate salt obtained as indicated in example 5, was tested for its ability to protect the human neuroblastoma cell line SH-SY5Y against death induced by oxidative stress (i.e., hydrogen peroxide (H202)) using an MTT (3-(4,5-dimethylthiazol-2-yl)-2,5-diphenyltetrazolium bromide) cell proliferation assay.
# SH-SY5Y cells were cultivated in 50% Eagle's minimum essential medium (EMEM), 50% Ham's F12 Nutrient Mixture, 10% fetal bovine serum (FBS), 2 mM L-Glu, and 1% penicillin/streptomycin. All of the cell cultures were maintained in a humidified incubator at 5% CO2 and at 37° C. SH-SY5Y cells were preincubated for 1 hour with BN201 alone, monomethyl fumarate alone, or BN201-monomethylfumarate salt at various concentrations (n=5; concentrations: 0.03 μM, 0.1 μM, 0.3 μM, 0.5 μM, 1 μM, 3 μM, 5 μM, 10 μM, 20 μM, 40 μM) and then H2O2 (15 μM) was added to induce stress. Preincubation with sodium pyruvate (10 mM) was used as a positive control. After 30 minutes of H2O2 incubation, the medium was changed and thiazolyl blue tetrazolium bromide (MTT; Sigma Aldrich; stock concentration 10 mg/ml) was added to each well at the final concentration of 0.5 mg/ml. After 2 hours of MTT incubation the cell medium was removed, and cells were resuspended in pure dimethyl sulfoxide (DMSO). Cell viability was determined by reading the absorbance at 570 nm. Each experiment was performed in quintuplicate.
# [6] = system: rat model of experimental autoimmune encephalomyelitis (EAE); conditions: cited from earlier work
# [7] = system: non-obese diabetic mouse model of relapsing-remitting EAE; conditions: cited from earlier work
structure (smiles),measurement,setting,value
"CCCCCCCCc1ccc(CCC(N)(CO)CO)cc1 [FTY720, Fingolimod, reference compound]",clinical score compared to pathological control group,[1],significantly lower
same,clinical score,[2],significant amelioration of the clinical score
"COC(=O)/C=C/C(=O)OC [DMF, Dimethyl fumarate, reference compound]",course of EAE (clinical score) versus placebo,[3],suffered EAE similar to those mice treated with placebo
"Cc1ccc(S(=O)(=O)OCC(=O)Nc2ccc(C(=O)O)c(O)c2)cc1 [S31-201, 2-Hydroxy-4-[[[[(4-methylphenyl)sulfonyl]oxy]acetyl]amino]-benzoic acid, reference compound]",course of EAE in chronic phase (clinical score),[4],not efficacious
CC(C)CN(CC(=O)N(CCCN1CCCC1=O)CC(N)=O)C(=O)CNCCc1ccccc1F [BN201-monomethylfumarate salt],cell viability as a percentage compared to the control (protection from death induced by oxidative stress),[5],increased
same,cell viability as a percentage compared to the control (protection from death induced by oxidative stress),[5]; listed as BN201-monomethylfumarate,significantly higher level of neuroprotection than either compound alone
"COC(=O)/C=C/C(=O)O [fumarate, fumaric acid monomethyl ester, reference compound]",cell viability as a percentage compared to the control (protection from death induced by oxidative stress),[5],partially rescued neurons from death induced by oxidative stress
"CCCc1ccc(COc2ccc3c(c2)CCC(CN2CC(C(=O)O)C2)=C3C)c(OC)c1 [Ceralifimod, 1-[[6-[(2-methoxy-4-propylphenyl)methoxy]-1-methyl-3,4-dihydronaphthalen-2-yl]methyl]azetidine-3-carboxylic acid]",disease onset,[6],delays disease onset
same,lymphocyte infiltration of the spinal cord,[6],inhibits lymphocyte infiltration of the spinal cord
same,disease relapse,[7],prevents disease relapse
